Source: ChEMBL document CHEMBL1201862, “PubChem BioAssay data set” (2004)
The source made the active and inactive calls.

Legend:
[1] = biological target: T1, Endoribonuclease toxin MazF (Escherichia coli K-12, UniProt P0AE70); assay: substrate-only fluorescence increase artefacts – biochemical, single-stranded RNase substrate, counter-screen for MazEF activator project, dose response (AID 588502); format: functional
T1 sequence (P0AE70 whole entry): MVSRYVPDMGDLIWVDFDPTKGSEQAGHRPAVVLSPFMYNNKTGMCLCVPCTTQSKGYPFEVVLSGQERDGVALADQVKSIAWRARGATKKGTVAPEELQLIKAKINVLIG

[2] = biological target: T1, Endoribonuclease toxin MazF; assay: activation of MazEF endoribonuclease cleavage – biochemical, fluorescence, single-stranded RNA substrate, uHTS hits, dose response (AID 588481); format: functional
[3] = A549 cell cytotoxicity, dose response, cytotoxicity control, plate reader, cherry-pick, antagonist series (AID 743412); format: functional, cell-based
[4] = blockers of bursicon-stimulated LGR2 cAMP reporter – cell-based, HEK293, CRE-luciferase reporter, cherry pick, set 2, dose response (AID 743343); format: functional;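 note: transfected cells were stimulated with diluted bursicon conditioned medium after compound addition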
[5] = viability loss in HEK293 cells – cell-based, plate reader, cherry-picked samples, cytotoxicity control, dose response (AID 743446); format: functional
[6] = blockade of melanocortin 4 receptor signaling – cell-based, plate reader, cherry pick, counter-screen for LGR2 antagonist project, dose response (AID 743444); format: functional;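 note: transfected HEK 293 cells stimulated with alpha-MSH peptide; potency of inhibitors of the alpha-MSH evoked signal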
[7] = biological target: T2, Replicative DNA helicase DnaB (Mycobacterium tuberculosis, UniProt P9WMR3); assay: DnaB intein splicing inhibitors, dose response, biochemical, cell-free fluorescence (AID 449749); format: functional
T2 sequence (P9WMR3 whole entry): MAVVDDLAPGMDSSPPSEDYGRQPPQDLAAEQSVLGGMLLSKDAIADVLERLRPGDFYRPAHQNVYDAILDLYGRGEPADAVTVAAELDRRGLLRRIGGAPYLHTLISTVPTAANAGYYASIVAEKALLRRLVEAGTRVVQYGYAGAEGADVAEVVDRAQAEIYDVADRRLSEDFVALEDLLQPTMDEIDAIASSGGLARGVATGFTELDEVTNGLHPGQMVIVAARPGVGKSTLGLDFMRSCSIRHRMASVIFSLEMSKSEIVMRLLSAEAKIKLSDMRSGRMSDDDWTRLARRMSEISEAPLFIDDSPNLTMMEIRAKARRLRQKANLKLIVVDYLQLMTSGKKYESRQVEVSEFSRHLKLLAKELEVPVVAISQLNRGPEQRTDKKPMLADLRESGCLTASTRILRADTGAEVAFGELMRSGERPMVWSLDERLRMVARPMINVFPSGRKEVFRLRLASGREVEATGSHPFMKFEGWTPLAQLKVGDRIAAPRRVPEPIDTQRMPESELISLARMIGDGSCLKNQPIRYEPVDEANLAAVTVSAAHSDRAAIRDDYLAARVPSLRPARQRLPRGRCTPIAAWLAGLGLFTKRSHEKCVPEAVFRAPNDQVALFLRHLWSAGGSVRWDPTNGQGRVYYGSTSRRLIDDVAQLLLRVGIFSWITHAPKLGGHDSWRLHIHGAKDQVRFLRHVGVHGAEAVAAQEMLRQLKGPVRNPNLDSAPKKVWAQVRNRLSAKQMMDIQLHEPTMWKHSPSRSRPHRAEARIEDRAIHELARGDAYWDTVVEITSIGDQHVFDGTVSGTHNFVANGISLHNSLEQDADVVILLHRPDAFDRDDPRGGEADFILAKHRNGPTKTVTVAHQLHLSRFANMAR

Protein RecA = biological target: T3, Protein RecA (Mycobacterium tuberculosis, UniProt P9WHJ3); assay: Fluorescence Cell-Free Homogeneous Dose Retest to Identify Inhibitors of RecA-Intein Splicing Activity. [Related pubchem assays (depositor defined):AID2097, AID2223, AID489010, AID492950]; format: functional
T3 sequence (P9WHJ3 whole entry): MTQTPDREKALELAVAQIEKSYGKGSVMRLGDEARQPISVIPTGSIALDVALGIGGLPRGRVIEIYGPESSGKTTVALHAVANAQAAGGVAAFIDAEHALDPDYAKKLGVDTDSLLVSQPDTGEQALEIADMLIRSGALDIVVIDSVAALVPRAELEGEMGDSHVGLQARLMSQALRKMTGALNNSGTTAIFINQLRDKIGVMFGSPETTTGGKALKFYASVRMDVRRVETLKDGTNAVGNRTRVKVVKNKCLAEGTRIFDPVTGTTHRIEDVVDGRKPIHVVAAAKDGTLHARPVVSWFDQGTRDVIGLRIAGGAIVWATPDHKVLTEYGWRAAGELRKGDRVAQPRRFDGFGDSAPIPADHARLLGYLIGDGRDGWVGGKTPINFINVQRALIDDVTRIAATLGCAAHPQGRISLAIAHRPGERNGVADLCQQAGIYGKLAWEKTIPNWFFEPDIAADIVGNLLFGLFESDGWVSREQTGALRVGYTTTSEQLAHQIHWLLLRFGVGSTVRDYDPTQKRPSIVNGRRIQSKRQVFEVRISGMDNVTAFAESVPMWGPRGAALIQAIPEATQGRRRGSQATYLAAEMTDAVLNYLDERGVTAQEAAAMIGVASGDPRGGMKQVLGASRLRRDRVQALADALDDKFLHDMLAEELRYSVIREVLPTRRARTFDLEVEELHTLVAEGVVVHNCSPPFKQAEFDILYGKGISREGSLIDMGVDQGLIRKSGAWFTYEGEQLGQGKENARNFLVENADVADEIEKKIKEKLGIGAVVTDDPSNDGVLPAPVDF

[8] = toxicity toward HepG2 liver cells – cell-based, plate reader, cherry-pick, antagonist series, cytotoxicity control, dose response (AID 743416); format: functional
[9] = viability inhibitors of stage V gametocytes – luminescence, dose response (AID 1117278); format: functional, cell-based;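 note: gametocytes exposed to compound for 24 hours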
[10] = viability loss in human Jurkat cells – cell-based, luminescence, cytotoxicity control for P. falciparum gametocyte viability project, dose response (AID 1117277); format: functional;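 note: potency reflects loss of cellular ATP meaning fewer viable cells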
Vero = assay: cells; format: functional, cell-based; conditions: Chlorocebus sabaeus
[11] = biological target: T4, High affinity choline transporter 1 (Homo sapiens, UniProt Q9GZV3); assay: human choline transporter blockers, potency – cell-based, 5-point CRC, membrane potential dye, dose response (AID 504840); format: functional
T4 sequence (Q9GZV3 whole entry): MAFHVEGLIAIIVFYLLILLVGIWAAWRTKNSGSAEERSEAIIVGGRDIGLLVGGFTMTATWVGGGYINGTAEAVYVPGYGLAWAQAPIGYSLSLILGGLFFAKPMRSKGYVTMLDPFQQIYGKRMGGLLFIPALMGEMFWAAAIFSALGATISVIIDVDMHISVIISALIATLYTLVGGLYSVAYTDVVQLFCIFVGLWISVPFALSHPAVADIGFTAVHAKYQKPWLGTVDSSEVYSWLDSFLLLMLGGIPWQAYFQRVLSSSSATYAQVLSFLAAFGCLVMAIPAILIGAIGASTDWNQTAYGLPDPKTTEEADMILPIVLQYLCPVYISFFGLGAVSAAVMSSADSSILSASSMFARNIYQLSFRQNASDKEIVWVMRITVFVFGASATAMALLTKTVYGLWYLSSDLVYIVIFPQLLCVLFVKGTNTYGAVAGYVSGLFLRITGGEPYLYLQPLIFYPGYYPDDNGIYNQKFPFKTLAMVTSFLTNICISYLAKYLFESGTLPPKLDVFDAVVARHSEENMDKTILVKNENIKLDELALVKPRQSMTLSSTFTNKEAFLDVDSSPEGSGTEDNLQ

Coagulation factor XII = biological target: T5, Coagulation factor XII (Homo sapiens, UniProt P00748); format: functional;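 note: activated factor XIIa alpha cleaving a fluorogenic AMC peptide substrate; inhibitor potency from loss of enzyme activity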
T5 sequence (P00748 whole entry): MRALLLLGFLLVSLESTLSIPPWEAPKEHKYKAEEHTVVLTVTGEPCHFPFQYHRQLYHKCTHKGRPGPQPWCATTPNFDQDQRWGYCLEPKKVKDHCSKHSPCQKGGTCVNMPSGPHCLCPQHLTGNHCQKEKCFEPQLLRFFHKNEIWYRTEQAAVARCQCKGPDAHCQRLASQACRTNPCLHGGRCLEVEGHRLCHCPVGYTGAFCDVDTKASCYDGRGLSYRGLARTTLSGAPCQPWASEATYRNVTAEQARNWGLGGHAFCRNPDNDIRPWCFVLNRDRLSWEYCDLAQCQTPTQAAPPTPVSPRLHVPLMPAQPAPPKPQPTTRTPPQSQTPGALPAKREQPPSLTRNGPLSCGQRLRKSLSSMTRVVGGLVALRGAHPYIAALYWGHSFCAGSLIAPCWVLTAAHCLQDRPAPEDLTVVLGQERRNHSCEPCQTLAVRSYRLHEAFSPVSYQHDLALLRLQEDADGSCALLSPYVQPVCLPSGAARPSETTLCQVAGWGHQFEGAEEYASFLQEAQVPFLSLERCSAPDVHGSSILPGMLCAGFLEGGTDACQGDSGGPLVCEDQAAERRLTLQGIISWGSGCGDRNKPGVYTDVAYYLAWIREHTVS

Paired box protein Pax-8 = Paired box protein Pax-8 (Homo sapiens, UniProt Q06710); assay: PAX8 transcriptional activity inhibition in RMG-I – RMG-I cells, luciferase, cherry-pick, dose response (AID 687027); format: functional, cell-based;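 note: luciferase reporter driven by Pax8 target thyroperoxidase promoter measured by SteadyGlo luminescence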
Chain of Paired box protein Pax-8 (Q06710 whole entry): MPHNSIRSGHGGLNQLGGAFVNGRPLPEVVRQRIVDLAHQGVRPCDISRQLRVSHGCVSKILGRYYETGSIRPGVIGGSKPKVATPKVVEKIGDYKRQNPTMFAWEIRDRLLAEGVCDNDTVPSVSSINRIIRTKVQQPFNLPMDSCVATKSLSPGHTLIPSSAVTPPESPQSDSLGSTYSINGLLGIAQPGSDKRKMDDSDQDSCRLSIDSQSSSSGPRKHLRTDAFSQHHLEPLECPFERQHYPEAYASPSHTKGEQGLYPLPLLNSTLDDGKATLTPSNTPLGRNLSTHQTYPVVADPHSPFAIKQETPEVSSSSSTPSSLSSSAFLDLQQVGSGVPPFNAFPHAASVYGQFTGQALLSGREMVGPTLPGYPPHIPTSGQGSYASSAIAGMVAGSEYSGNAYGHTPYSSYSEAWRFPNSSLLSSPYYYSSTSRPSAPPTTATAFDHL

[12] = biological target: T6, Mannose-6-phosphate isomerase (Homo sapiens, UniProt P34949); assay: MPI inhibition at elevated mannose 6-phosphate – biochemical, fluorescence intensity, high mannose 6-phosphate, primary screen (AID 1220)
T6 sequence (P34949 whole entry): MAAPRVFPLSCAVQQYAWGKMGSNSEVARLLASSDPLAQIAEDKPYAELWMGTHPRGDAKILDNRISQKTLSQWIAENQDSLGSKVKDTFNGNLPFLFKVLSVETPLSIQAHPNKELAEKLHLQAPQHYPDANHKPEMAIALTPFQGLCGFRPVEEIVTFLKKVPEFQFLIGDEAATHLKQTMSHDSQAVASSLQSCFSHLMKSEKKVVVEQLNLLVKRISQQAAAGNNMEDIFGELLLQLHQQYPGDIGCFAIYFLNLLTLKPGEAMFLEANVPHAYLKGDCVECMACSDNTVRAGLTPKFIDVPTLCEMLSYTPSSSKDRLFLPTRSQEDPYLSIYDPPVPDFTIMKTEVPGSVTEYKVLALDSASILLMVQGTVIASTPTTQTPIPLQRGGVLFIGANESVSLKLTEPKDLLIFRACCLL

[13] = biological target: Glyceraldehyde-3-phosphate dehydrogenase (Homo sapiens, UniProt P04406)
Chain of Glyceraldehyde-3-phosphate dehydrogenase (P04406 whole entry): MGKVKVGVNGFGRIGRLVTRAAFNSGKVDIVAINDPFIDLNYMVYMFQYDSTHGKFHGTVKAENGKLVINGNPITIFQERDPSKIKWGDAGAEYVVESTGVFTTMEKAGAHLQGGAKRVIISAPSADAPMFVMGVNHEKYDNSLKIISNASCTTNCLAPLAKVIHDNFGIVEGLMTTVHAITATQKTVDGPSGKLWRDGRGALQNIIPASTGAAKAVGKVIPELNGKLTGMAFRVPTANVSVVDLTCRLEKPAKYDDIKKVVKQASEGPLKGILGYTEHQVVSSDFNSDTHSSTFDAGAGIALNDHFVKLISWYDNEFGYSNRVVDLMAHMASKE

With `CCOc1ccc2c(c1)c1nc3ccccc3nc1n2C` the EC50 [1] was > 99 µM (inactive) and the EC50 [2] was > 99 µM (inactive).

With `CN(C(=O)c1ccc(S(=O)(=O)c2cccc(Cl)c2)c([N+](=O)[O-])c1)C1CCCCC1` the AC50 [3] was 15.8 µM (active), the AC50 [4] was 5.15 µM (active) and the AC50 [5] was 13.8 µM (active). For the same molecule, the AC50 [6] was 7.45 µM (active), the AC50 [7] was 5.56 µM (active) and the EC50 (Protein RecA) was 4.33 µM (active). For the same molecule, the AC50 [8] was 16.2 µM (active).

In the case of `Cc1nn(CCCC(=O)O)c(C)c1[N+](=O)[O-]`, the IC50 [9] is reported as > 109 µM (inactive) and the IC50 [10] is reported as > 83.4 µM (inactive).

For `COc1ccc(NC(=O)[C@H](Cc2c[nH]c3ccccc23)NC(=O)[C@@H]2Cc3ccccc3CN2)cc1`, the IC50 (Vero) was 11.8 µM (active).

For `Cc1ccc(C[S+]([O-])Cc2ccc(C(=O)NC3CCC(C)CC3)o2)cc1` (centres undefined), the IC50 [11] was 13.8 µM (active).

With `CCN(CC)CCCNC(=O)c1cc(-c2ccc(Cl)c(Cl)c2)on1` the IC50 [11] was 12.9 µM (active).

For `NS(=O)(=O)c1ccc(Cl)cc1[N+](=O)[O-]`, the IC50 (Coagulation factor XII) was > 50 µM (inactive).

In the case of `Oc1ccccc1-c1nc(NCc2ccccc2)c2ccccc2n1`, the EC50 [1] is reported as > 99 µM (inactive) and the EC50 [2] is reported as > 99 µM (inactive).

For `Cc1ccc(-n2c(C)nn(Cc3ccc([N+](=O)[O-])cc3)c2=O)cc1`, the IC50 [9] was > 109 µM (inactive) and the IC50 [10] was > 83.4 µM (inactive).

For `O=C(Nc1ccc(Cl)c(C(F)(F)F)c1)N1CCCC(O)C1` (centres undefined), the IC50 (Coagulation factor XII) was > 50 µM (inactive).

In the case of `Cn1nnnc1Sc1ncnc2scc(-c3cccc(C(F)(F)F)c3)c12`, the AC50 [3] is reported as 10.1 µM (active), the AC50 [4] is reported as 6.18 µM (active) and the AC50 [5] is reported as 9.08 µM (active). The AC50 (Paired box protein Pax-8) was 3.41 µM (active), the AC50 [6] was 5.97 µM (active) and the AC50 [8] was 16.4 µM (active).

With `CCC(=O)NC(C)C(c1cccs1)N1CCOCC1` (centres undefined) the IC50 [9] was > 109 µM (inactive) and the IC50 [10] was > 83.3 µM (inactive).

With `CC(=O)NS(=O)(=O)c1ccc(NC(=S)NC(=O)c2ccco2)cc1` the IC50 (Coagulation factor XII) was > 50 µM (inactive).

With `CN(C)S(=O)(=O)c1cccc(NC(=O)COC(=O)COc2ccc(Br)cc2)c1` the IC50 [9] was > 109 µM (inactive) and the IC50 [10] was > 83.3 µM (inactive).

For `O=C(Nc1ccc(S(=O)(=O)Nc2cnc3ccccc3n2)cc1)c1cc(F)c(F)cc1Cl`, the IC50 [11] was 12.1 µM (active).

With `COc1cc(C(N)=O)cc(Cl)c1OC` the IC50 (Coagulation factor XII) was > 50 µM (inactive).

In the case of `O=C(O)COc1ccc(NC(=O)c2cccs2)cc1`, the IC50 [9] is reported as > 109 µM (inactive) and the IC50 [10] is reported as > 83.3 µM (inactive).

In the case of `CC/C(C)=N/NS(=O)(=O)c1ccc(C)c([N+](=O)[O-])c1`, the EC50 [1] is reported as 7.91 µM (active) and the EC50 [2] is reported as > 99 µM (inactive).

With `CC(/C=C/c1ccco1)=N\NC(=O)CNc1ccc2ccccc2c1` the IC50 [12] was > 50 µM (not active).

In the case of `CC(C)CCNC(=O)c1cc(-c2ccc(Cl)cc2Cl)n[nH]1`, the IC50 [13] is reported as > 10 µM (inconclusive).
